Source: patent US10098853B2, “Composition for treating atherosclerosis and a preparation method thereof” (KAOHSIUNG MEDICAL UNIVERSITY, priority 2011, dated 2018)
“Also recorded” adds a separate entry of the source.

What was measured:
cyclin D3 = experiment: Cyclin D3 protein expression in Ox-LDL treated HASMCs (immunoblotting); format: cell-based, human; conditions: FIG. 9, PD98059 10^−5 M, compound 1 5 μg/ml, rosiglitazone 5 μg/ml, Ox-LDL 30 μg/ml, 8 hours
Description: (§1) Three independent experiments are made in each group.

cyclin D1 = experiment: Cyclin D1 protein expression in Ox-LDL treated HASMCs (immunoblotting); format: cell-based, human; conditions: FIG. 9, PD98059 10^−5 M, compound 1 5 μg/ml, rosiglitazone 5 μg/ml, Ox-LDL 30 μg/ml, 8 hours
Description: as §1

Ki-67 protein = Ki-67 protein immunofluorescence in Ox-LDL stimulated HASMCs; format: cell-based, human; conditions: Ox-LDL 30 μg/ml, 24 hours; for positive stains of Ki-67: compound 1 5 μg/ml or PD98059 10^−5 M
Experimental: For analyzing the mechanisms of compound 1 on inhibiting HASMCs proliferation, the cellular marker for proliferation, Ki-67 protein (also known as MKI67), detected with green fluorescence was the index for HASMCs proliferation. The experiment method was to stimulate HASMCs with Ox-LDL (30 μg/ml) for 24 hours, and simultaneously compound 1 (5 μg/ml) or PD98059 (an ERK 1/2 inhibitor, 10^−5 M) was added. A mouse anti-Ki-67 monoclonal antibody was combined with a DyLight™488-conjugated second antibody to confirm the HASMCs proliferation. DAPI (4′,6-diamidino-2-phenylindole), a fluorescent stain that binds strongly to DNA, was used to localize cell nuclei. Cells were observed under flourescence microscopy. The proliferative cells were quantified by counting the ratio of DyLight™488 (green) fluorescence and DAPI (blue) fluorescence.

[1] = system: human aortic smooth muscle cells (HASMCs); experiment: HASMCs proliferation induced by LPS (WST-1); format: cell-based
Experimental: First, HASMCs were seeded into 96-well plates.
Chalcone compounds 1 to 29 at different concentrations prepared in Experiment 1 were used to determine the effect of HASMCs proliferation induced by LPS. […] In reference to the drug concentration for cytotoxicity that HASMCs tolerate, the chalcone compounds having the relevant substituents to compound 1 were selected (rather than all chalcone compounds) to compare with each other at the same concentration.

[2] = system: human aortic smooth muscle cells (HASMCs); experiment: HASMCs proliferation and cell viability induced by Ox-LDL (WST-1); conditions: FIG. 2; 1, 2.5 and 5 μg/ml, Ox-LDL 30 μg/ml, 24 hours
Experimental: For analyzing whether each genus of flavonoid compounds could inhibit the activity of HASMCs proliferation, the proliferation and cell viability of HASMCs were determined using WST-1 reagent (Roche Applied Science, Penzberg, Germany). WST-1 is a tetrazolium salt that will be cleaved to formazan by mitochondrial dehydrogenases in viable cells. First, HASMCs were seeded into 96-well plates. […] At the end of incubation, WST-1 was added into cell medium and the amount of formazan was measured at a wavelength of 450 nm by an ELISA reader.

PPARγ [3] = experiment: PPARγ protein expression in HASMCs (immunoblotting); format: cell-based, human; conditions: FIG. 7(b); compound 1 alone, 0, 1, 2.5 and 5 μg/ml, 4 and 8 hours
Experimental: FIG. 7(a) and FIG. 7(b) respectively are (a) the diagram showing PPARγ mRNA expression and (b) an immunoblotting spectrum showing the PPARγ protein expression of compound 1 (0, 1, 2.5 and 5 μg/ml) on HASMCs for 4 and 8 hours. Data are represented as mean±S.D. in three independent experiments. a: p<0.001, b: p<0.01.
To further confirm whether compound 1 is an inducer of PPARγ for HASMCs, cells were stimulated with compound 1 alone.

PPARγ [4] = experiment: PPARγ mRNA expression in HASMCs (real-time PCR); format: cell-based, human
Experimental: The anti-inflammatory effect of compound 1 was determined by the mRNA expressions of IL-1β and IL-6. HASMCs were stimulated with Ox-LDL (30 μg/ml) for 8 hours, and simultaneously treated with (i) PD98059 (5 μg/ml), (ii) rosiglitazone (5 μg/ml), (iii) compound 1 (5 μg/ml) and (iv) rosiglitazone (5 μg/ml) plus compound 1 (5 μg/ml). […] SEQ ID Nos: 1 and 2 were paired in amplification of IL-1β gene, SEQ ID Nos: 3 and 4 were paired in amplification of IL-6 gene, SEQ ID Nos: 5 and 6 were paired in amplification of PPARα gene, SEQ ID Nos: 7 and 8 were paired in amplification of PPARγ gene, and SEQ ID Nos: 9 and 10 were paired in amplification of β-actin gene.
This experiment was performed to investigate the regulatory mechanism of compound 1 on PPARγ based on PPARγ mRNA expression in HASMCs. […]

PPARα = PPARα mRNA expression in HASMCs (real-time PCR); format: cell-based, human; conditions: FIG. 6(b); with Ox-LDL 30 μg/ml, compound 1 5 μg/ml, 2, 4, 8 and 24 hours

For `CN(CCOc1ccc(CC2SC(=O)NC2=O)cc1)c1ccccn1` (racemic) [rosiglitazone, (RS)-5-[4-(2-[methyl(pyridin-2-yl)amino]ethoxy)benzyl]thiazolidine-2,4-dione], the “cyclin D3 protein expression induced by Ox-LDL” value (cyclin D3) was “did not significantly decrease cyclin D1 and D3 protein expression; also recorded: but not PD98059 and rosiglitazone, significantly decreased the cyclin D1 and D3 upregulation” and the “cyclin D1 protein expression induced by Ox-LDL” value (cyclin D1) was “did not significantly decrease cyclin D1 and D3 protein expression; also recorded: but not PD98059 and rosiglitazone, significantly decreased the cyclin D1 and D3 upregulation”.

In the case of `COc1cccc(-c2cc(=O)c3ccccc3o2)c1N` [PD98059, 2-(2-amino-3-methoxyphenyl)-chromen-4-one], the “cyclin D3 protein expression induced by Ox-LDL” value (cyclin D3) is reported as “did not significantly decrease cyclin D1 and D3 protein expression; also recorded: but not PD98059 and rosiglitazone, significantly decreased the cyclin D1 and D3 upregulation”, the “cyclin D1 protein expression induced by Ox-LDL” value (cyclin D1) is reported as “did not significantly decrease cyclin D1 and D3 protein expression; also recorded: but not PD98059 and rosiglitazone, significantly decreased the cyclin D1 and D3 upregulation” and the “positive stains of Ki-67” value (Ki-67 protein) is reported as “decreased the positive stains of Ki-67”.

`COc1ccc(/C=C/C(=O)c2ccccc2O)cc1` [compound 1] was tested, and the “inhibition activity on HASMCs proliferation induced by LPS” value (from here on “inhibition activity”) ([1]; FIG. 11(a), 5 μg/ml) was “compound 1 rather than compound 7 has inhibition activity”, the “inhibition activity” value ([1]; FIG. 11(b), 2.5 μg/ml) was “compound 1 rather than compound 5 had inhibition activity” and the “cytotoxicity to HASMCs” value ([1]; FIG. 11(c), 2 μg/ml) was “non-toxic to cells”. For the same compound, the “inhibition activity” value ([1]; FIG. 11(c), 2 μg/ml) was “had the best inhibition activity”, the “cell proliferation compared to Ox-LDL treatment group” value [2] was “significantly decreased in a dose dependent manner” and the PPARγ protein expression (PPARγ [3]) was “significantly increased PPARγ mRNA and protein expression in dose and time dependent manners”. The “time at which maximum PPARγ mRNA expression was reached” value (PPARγ [4]; FIG. 6(a), with Ox-LDL 30 μg/ml, compound 1 5 μg/ml) was 8 h, the “PPARγ mRNA expression” value (PPARγ [4]; FIG. 6(a), with Ox-LDL 30 μg/ml, compound 1 5 μg/ml, 2, 4, 8 and 24 hours) was “significantly increased PPARγ mRNA expression post 4 hours administration” and the “PPARγ mRNA expression” value (PPARγ [4]; FIG. 7(a), compound 1 alone, 0, 1, 2.5 and 5 μg/ml, 4 and 8 hours) was “significantly increased PPARγ mRNA and protein expression in dose and time dependent manners”. The “cyclin D3 protein expression induced by Ox-LDL” value (cyclin D3) was “significantly inhibited cyclin D1 and D3 protein upregulation induced by Ox-LDL”, the “cyclin D3 protein expression induced by Ox-LDL” value (cyclin D3; listed as Compound 1) was “significantly decreased the cyclin D1 and D3 upregulation” and the “cyclin D1 protein expression induced by Ox-LDL” value (cyclin D1) was “significantly inhibited cyclin D1 and D3 protein upregulation induced by Ox-LDL”. The “cyclin D1 protein expression induced by Ox-LDL” value (cyclin D1; listed as Compound 1) was “significantly decreased the cyclin D1 and D3 upregulation”, the “reduction of proliferative (Ki-67 positive) cells compared to Ox-LDL stimulated HASMCs” value (Ki-67 protein; FIG. 3, 5 μg/ml) was “about 10%” and the “positive stains of Ki-67” value (Ki-67 protein) was “decreased the positive stains of Ki-67”. The “PPARα mRNA expression” value (PPARα) was “neither Ox-LDL nor compound 1 stimulated PPARα mRNA upregulation”.

`O=C(/C=C/c1ccccc1)c1ccc(O)cc1O` [compound 2] was tested, and the “cytotoxicity to HASMCs” value ([1]; FIG. 11(c), 2 μg/ml) was “would lead to death of a part cells”.

For `O=C(/C=C/c1ccc(OCc2ccccc2)cc1)c1ccc(O)cc1O` [compound 3], the “inhibition activity” value ([1]; FIG. 11(c), 2 μg/ml) was “compound 3 rather than compound 6 had inhibition activity”.

`COc1cccc(/C=C/C(=O)c2ccccc2O)c1` [compound 4] was tested, and the “inhibition activity” value ([1]; FIG. 11(a), 5 μg/ml) was “both had the similar inhibition activity”.

`COc1ccc(/C=C/C(=O)c2ccc(O)cc2O)cc1` [compound 5] was tested, and the “inhibition activity” value ([1]; FIG. 11(b), 2.5 μg/ml) was “compound 1 rather than compound 5 had inhibition activity”.

With `COc1cccc(/C=C/C(=O)c2ccc(O)cc2O)c1` [compound 6] the “inhibition activity” value ([1]; FIG. 11(c), 2 μg/ml) was “compound 3 rather than compound 6 had inhibition activity”.

For `COc1ccc(/C=C/C(=O)c2ccccc2)cc1` [compound 7], the “inhibition activity” value ([1]; FIG. 11(a), 5 μg/ml) was “compound 1 rather than compound 7 has inhibition activity”.

With `COc1cccc(/C=C/C(=O)c2ccccc2)c1` [compound 8] the “inhibition activity” value ([1]; FIG. 11(c), 2 μg/ml) was “did not have inhibition activity”.

With `O=C(/C=C/c1ccccc1)c1ccccc1` [compound 9] the “inhibition activity” value ([1]; FIG. 11(c), 2 μg/ml) was “showed no inhibition activity”.

For `O=C(/C=C/c1ccccc1)c1ccccc1O` [compound 10], the “inhibition activity” value ([1]; FIG. 11(b), 2.5 μg/ml) was “did not have inhibition activity”.

For `O=C(/C=C/c1cccc(OCc2ccccc2)c1)c1ccccc1O` [compound 11], the “cytotoxicity to HASMCs” value ([1]; FIG. 11(c), 2 μg/ml) was “would lead to death of a part cells”.

With `COc1ccc(/C=C/C(=O)c2ccccc2Br)cc1` [compound 12] the “inhibition activity” value ([1]; FIG. 11(b), 2.5 μg/ml) was “compound 12 rather than compound 14 had inhibition activity”.

In the case of `COc1cccc(/C=C/C(=O)c2cccc(Br)c2)c1` [compound 14], the “inhibition activity” value ([1]; FIG. 11(b), 2.5 μg/ml) is reported as “compound 12 rather than compound 14 had inhibition activity”.

With `COc1cccc(/C=C/C(=O)c2ccc(Cl)cc2)c1` [compound 15] the “cytotoxicity to HASMCs” value ([1]; FIG. 11(c), 2 μg/ml) was “would lead to death of a part cells”.

For `O=C(/C=C/c1ccccc1)c1cc(Br)ccc1O` [compound 19], the “cytotoxicity to HASMCs” value ([1]; FIG. 11(a), 5 μg/ml) was “would lead to death of a part of cells” and the “inhibition activity” value ([1]; FIG. 11(a), 5 μg/ml) was “had inhibition activity”.

For `COc1ccc(/C=C/C(=O)c2cc(Br)ccc2O)cc1` [compound 20], the “cytotoxicity to HASMCs” value ([1]; FIG. 11(a), 5 μg/ml) was “would lead to death of a part of cells” and the “inhibition activity” value ([1]; FIG. 11(a), 5 μg/ml) was “had inhibition activity”.

For `COc1cccc(/C=C/C(=O)c2cc(Br)ccc2O)c1` [compound 21], the “cytotoxicity to HASMCs” value ([1]; FIG. 11(a), 5 μg/ml) was “would lead to death of a part of cells” and the “inhibition activity” value ([1]; FIG. 11(a), 5 μg/ml) was “had inhibition activity”.

`O=C(/C=C/c1cccc(OCc2ccccc2)c1)c1cc(Br)ccc1O` [compound 22] was tested, and the “cytotoxicity to HASMCs” value ([1]; FIG. 11(c), 2 μg/ml) was “would lead to death of a part cells”.

For `O=C(/C=C/c1ccc(OCc2ccccc2)cc1)c1cc(Br)ccc1O` [compound 23], the “cytotoxicity to HASMCs” value ([1]; FIG. 11(a), 5 μg/ml) was “would lead to death of a part of cells” and the “inhibition activity” value ([1]; FIG. 11(a), 5 μg/ml) was “had inhibition activity”.

In the case of `O=C(/C=C/c1ccc(OCc2ccccc2)cc1)c1ccccc1O` [compound 25], the “cytotoxicity to HASMCs” value ([1]; FIG. 11(a), 5 μg/ml) is reported as “would result in HASMC death”.

With `COc1ccc(/C=C/C(=O)c2ccccc2I)cc1` [compound 26] the “inhibition activity” value ([1]; FIG. 11(b), 2.5 μg/ml) was “slightly better than that of compounds 26 and 28”.

In the case of `COc1ccc(/C=C/C(=O)c2ccccc2F)cc1` [compound 27], the “inhibition activity” value ([1]; FIG. 11(b), 2.5 μg/ml) is reported as “inhibition activity of compound 1 was better than those of compounds 12 and 27”.

In the case of `COc1ccc(/C=C/C(=O)c2ccccc2Cl)cc1` [compound 28], the “inhibition activity” value ([1]; FIG. 11(b), 2.5 μg/ml) is reported as “slightly better than that of compounds 26 and 28”.

For `O=C(/C=C/c1ccc(O)cc1)c1ccccc1` [compound 29], the “inhibition activity” value ([1]; FIG. 11(c), 2 μg/ml) was “had no inhibition activity”.
